Data: the supplement of paper PMC11424490

Legend:
NCI-H2122 = test: combination cScore with sotorasib (Bliss gap around IC50) (%PoC); higher = stronger additive effect
How it was run: (§1)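 After 24 h in 384-well plates (500 or 800 cells per well), NCI-H2122, NCI-H358 and SW837 cells received concentration matrices and grew for 72 h, except SW837, which grew for 144 h. CellTiter-Glo readings were scaled to vehicle wells and fitted with four-parameter curves. Each score is the averaged Bliss-independence difference (expected minus measured viability) over a region around both monotherapy IC50s, or at top concentrations when no IC50 was reached.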

SW837 = test: as above
How it was run: as §1

Nc1cccc2c1CN(C1CCC(=O)NC1=O)C2=O (stereo unspecified) [Lenalidomide] + C=CC(=O)N1CCN(c2nc(=O)n(-c3c(C)ccnc3C(C)C)c3nc(-c4c(O)cccc4F)c(F)cc23)[C@@H](C)C1 [sotorasib]
combination cScore with sotorasib (NCI-H2122): 6.13
combination cScore with sotorasib (SW837): -2.25

O=C(O)c1nn(Cc2ccc(Cl)cc2Cl)c2ccccc12 [Lonidamine] + C=CC(=O)N1CCN(c2nc(=O)n(-c3c(C)ccnc3C(C)C)c3nc(-c4c(O)cccc4F)c(F)cc23)[C@@H](C)C1 [sotorasib]
combination cScore with sotorasib (NCI-H2122): -0.87
combination cScore with sotorasib (SW837): 2.86

CC[C@H](C)C(=O)O[C@H]1C[C@@H](C)C=C2C=C[C@H](C)[C@H](CC[C@@H]3C[C@@H](O)CC(=O)O3)[C@H]21 [Lovastatin] + C=CC(=O)N1CCN(c2nc(=O)n(-c3c(C)ccnc3C(C)C)c3nc(-c4c(O)cccc4F)c(F)cc23)[C@@H](C)C1 [sotorasib]
combination cScore with sotorasib (NCI-H2122): -1.83
combination cScore with sotorasib (SW837): -0.46

COc1cc(Nc2ncc3c(n2)-c2ccc(Cl)cc2C(c2c(F)cccc2OC)=NC3)ccc1C(=O)O [MLN8237] + C=CC(=O)N1CCN(c2nc(=O)n(-c3c(C)ccnc3C(C)C)c3nc(-c4c(O)cccc4F)c(F)cc23)[C@@H](C)C1 [sotorasib]
combination cScore with sotorasib (NCI-H2122): -3.51
combination cScore with sotorasib (SW837): 10.3

Cc1ccc(NC(=O)c2ccc(CN3CCN(C)CC3)cc2)cc1Nc1nc(-c2cccnc2)cs1 [Masitinib] + C=CC(=O)N1CCN(c2nc(=O)n(-c3c(C)ccnc3C(C)C)c3nc(-c4c(O)cccc4F)c(F)cc23)[C@@H](C)C1 [sotorasib]
combination cScore with sotorasib (NCI-H2122): 17.9
combination cScore with sotorasib (SW837): -1.47

C[C@H](Cc1ccc(O)c(O)c1)[C@@H](C)Cc1ccc(O)c(O)c1 [Masoprocol] + C=CC(=O)N1CCN(c2nc(=O)n(-c3c(C)ccnc3C(C)C)c3nc(-c4c(O)cccc4F)c(F)cc23)[C@@H](C)C1 [sotorasib]
combination cScore with sotorasib (NCI-H2122): -1.02
combination cScore with sotorasib (SW837): 1.64

N[C@@H](Cc1ccc(N(CCCl)CCCl)cc1)C(=O)O [Melphalan] + C=CC(=O)N1CCN(c2nc(=O)n(-c3c(C)ccnc3C(C)C)c3nc(-c4c(O)cccc4F)c(F)cc23)[C@@H](C)C1 [sotorasib]
combination cScore with sotorasib (NCI-H2122): 2.92
combination cScore with sotorasib (SW837): 4.26

CN(C)C(=N)NC(=N)N [Metformin] + C=CC(=O)N1CCN(c2nc(=O)n(-c3c(C)ccnc3C(C)C)c3nc(-c4c(O)cccc4F)c(F)cc23)[C@@H](C)C1 [sotorasib]
combination cScore with sotorasib (NCI-H2122): 5.93
combination cScore with sotorasib (SW837): -0.945

CN(Cc1cnc2nc(N)nc(N)c2n1)c1ccc(C(=O)N[C@@H](CCC(=O)O)C(=O)O)cc1 [Methotrexate] + C=CC(=O)N1CCN(c2nc(=O)n(-c3c(C)ccnc3C(C)C)c3nc(-c4c(O)cccc4F)c(F)cc23)[C@@H](C)C1 [sotorasib]
combination cScore with sotorasib (NCI-H2122): -3.03
combination cScore with sotorasib (SW837): -3.51

CO[C@@]12[C@H](COC(N)=O)C3=C(C(=O)C(C)=C(N)C3=O)N1C[C@@H]1N[C@@H]12 [Mitomycin C] + C=CC(=O)N1CCN(c2nc(=O)n(-c3c(C)ccnc3C(C)C)c3nc(-c4c(O)cccc4F)c(F)cc23)[C@@H](C)C1 [sotorasib]
combination cScore with sotorasib (NCI-H2122): 11
combination cScore with sotorasib (SW837): 4.84

CCc1cccc(CC)c1NC(=O)c1nn(C)c2c1CCc1cnc(Nc3ccc(C(=O)NC4CCN(C)CC4)cc3OC(F)(F)F)nc1-2 [NMS-P715] + C=CC(=O)N1CCN(c2nc(=O)n(-c3c(C)ccnc3C(C)C)c3nc(-c4c(O)cccc4F)c(F)cc23)[C@@H](C)C1 [sotorasib]
combination cScore with sotorasib (NCI-H2122): 2.28
combination cScore with sotorasib (SW837): 13.2

O=c1cc(N2CCOCC2)oc2c(-c3cccc4c3sc3ccccc34)cccc12 [NU-7441] + C=CC(=O)N1CCN(c2nc(=O)n(-c3c(C)ccnc3C(C)C)c3nc(-c4c(O)cccc4F)c(F)cc23)[C@@H](C)C1 [sotorasib]
combination cScore with sotorasib (NCI-H2122): 15
combination cScore with sotorasib (SW837): 9.27

Cn1c(=O)n(-c2ccc(C(C)(C)C#N)cc2)c2c3cc(-c4cnc5ccccc5c4)ccc3ncc21 [NVP-BEZ235] + C=CC(=O)N1CCN(c2nc(=O)n(-c3c(C)ccnc3C(C)C)c3nc(-c4c(O)cccc4F)c(F)cc23)[C@@H](C)C1 [sotorasib]
combination cScore with sotorasib (NCI-H2122): 12
combination cScore with sotorasib (SW837): 7.37

Cc1cn(-c2cc(NC(=O)c3ccc(C)c(Nc4nccc(-c5cccnc5)n4)c3)cc(C(F)(F)F)c2)cn1 [Nilotinib] + C=CC(=O)N1CCN(c2nc(=O)n(-c3c(C)ccnc3C(C)C)c3nc(-c4c(O)cccc4F)c(F)cc23)[C@@H](C)C1 [sotorasib]
combination cScore with sotorasib (NCI-H2122): 6.86
combination cScore with sotorasib (SW837): 14.3

COC(=O)c1ccc2c(c1)NC(=O)/C2=C(\Nc1ccc(N(C)C(=O)CN2CCN(C)CC2)cc1)c1ccccc1 [Nintedanib] + C=CC(=O)N1CCN(c2nc(=O)n(-c3c(C)ccnc3C(C)C)c3nc(-c4c(O)cccc4F)c(F)cc23)[C@@H](C)C1 [sotorasib]
combination cScore with sotorasib (NCI-H2122): 11.8
combination cScore with sotorasib (SW837): 0.78

CN1CCN(c2ccc(-c3cccc(CN4CCOCC4)c3)cc2NC(=O)c2c[nH]c(=O)cc2C(F)(F)F)CC1 [OICR-9429] + C=CC(=O)N1CCN(c2nc(=O)n(-c3c(C)ccnc3C(C)C)c3nc(-c4c(O)cccc4F)c(F)cc23)[C@@H](C)C1 [sotorasib]
combination cScore with sotorasib (NCI-H2122): 9.62
combination cScore with sotorasib (SW837): 3.36

O=C(O)C(=O)O.[NH-][C@@H]1CCCC[C@H]1[NH-].[Pt+2] [Oxaliplatin] + C=CC(=O)N1CCN(c2nc(=O)n(-c3c(C)ccnc3C(C)C)c3nc(-c4c(O)cccc4F)c(F)cc23)[C@@H](C)C1 [sotorasib]
combination cScore with sotorasib (NCI-H2122): 13.8
combination cScore with sotorasib (SW837): 3.16

CCCS(=O)(=O)Nc1ccc(F)c(C(=O)c2c[nH]c3ncc(Cl)cc23)c1F [PLX4720] + C=CC(=O)N1CCN(c2nc(=O)n(-c3c(C)ccnc3C(C)C)c3nc(-c4c(O)cccc4F)c(F)cc23)[C@@H](C)C1 [sotorasib]
combination cScore with sotorasib (NCI-H2122): 17.4
combination cScore with sotorasib (SW837): 2.2

CC(=O)O[C@H]1C(=O)[C@@]2(C)[C@H]([C@H](OC(=O)c3ccccc3)[C@]3(O)C[C@H](OC(=O)[C@H](O)[C@@H](NC(=O)c4ccccc4)c4ccccc4)C(C)=C1C3(C)C)[C@]1(OC(C)=O)CO[C@@H]1C[C@@H]2O [Paclitaxel] + C=CC(=O)N1CCN(c2nc(=O)n(-c3c(C)ccnc3C(C)C)c3nc(-c4c(O)cccc4F)c(F)cc23)[C@@H](C)C1 [sotorasib]
combination cScore with sotorasib (NCI-H2122): 9.86
combination cScore with sotorasib (SW837): 3.37

Cc1ccc(Nc2nccc(N(C)c3ccc4c(C)n(C)nc4c3)n2)cc1S(N)(=O)=O [Pazopanib] + C=CC(=O)N1CCN(c2nc(=O)n(-c3c(C)ccnc3C(C)C)c3nc(-c4c(O)cccc4F)c(F)cc23)[C@@H](C)C1 [sotorasib]
combination cScore with sotorasib (NCI-H2122): 9.15
combination cScore with sotorasib (SW837): 2.58

Nc1nc2[nH]cc(CCc3ccc(C(=O)N[C@@H](CCC(=O)O)C(=O)O)cc3)c2c(=O)[nH]1 [Pemetrexed] + C=CC(=O)N1CCN(c2nc(=O)n(-c3c(C)ccnc3C(C)C)c3nc(-c4c(O)cccc4F)c(F)cc23)[C@@H](C)C1 [sotorasib]
combination cScore with sotorasib (NCI-H2122): 1.36
combination cScore with sotorasib (SW837): 16.4

CC(C)(C)c1cc(NC(=O)Nc2ccc(-c3cn4c(n3)sc3cc(OCCN5CCOCC5)ccc34)cc2)no1 [Quizartinib] + C=CC(=O)N1CCN(c2nc(=O)n(-c3c(C)ccnc3C(C)C)c3nc(-c4c(O)cccc4F)c(F)cc23)[C@@H](C)C1 [sotorasib]
combination cScore with sotorasib (NCI-H2122): -1.22
combination cScore with sotorasib (SW837): -4.13

Cc1ncc(NC(=O)c2cccc(C(F)(F)F)c2)cc1-c1cnc(OC2CCOCC2)c(N2CCOCC2)c1 [RAF-709] + C=CC(=O)N1CCN(c2nc(=O)n(-c3c(C)ccnc3C(C)C)c3nc(-c4c(O)cccc4F)c(F)cc23)[C@@H](C)C1 [sotorasib]
combination cScore with sotorasib (NCI-H2122): 3.48
combination cScore with sotorasib (SW837): 5.38

CO[C@H]1C[C@@H]2CC[C@@H](C)[C@@](O)(O2)C(=O)C(=O)N2CCCC[C@H]2C(=O)O[C@H]([C@H](C)C[C@@H]2CC[C@@H](O)[C@H](OC)C2)CC(=O)[C@H](C)/C=C(\C)[C@@H](O)[C@@H](OC)C(=O)[C@H](C)C[C@H](C)/C=C/C=C/C=C/1C [Rapamycin] + C=CC(=O)N1CCN(c2nc(=O)n(-c3c(C)ccnc3C(C)C)c3nc(-c4c(O)cccc4F)c(F)cc23)[C@@H](C)C1 [sotorasib]
combination cScore with sotorasib (NCI-H2122): 13.4
combination cScore with sotorasib (SW837): 10.2

CNC(=O)c1cc(Oc2ccc(NC(=O)Nc3ccc(Cl)c(C(F)(F)F)c3)c(F)c2)ccn1 [Regorafenib] + C=CC(=O)N1CCN(c2nc(=O)n(-c3c(C)ccnc3C(C)C)c3nc(-c4c(O)cccc4F)c(F)cc23)[C@@H](C)C1 [sotorasib]
combination cScore with sotorasib (NCI-H2122): 7.32
combination cScore with sotorasib (SW837): -5.66

COc1cc(OC)c(/C=C/S(=O)(=O)Cc2ccc(OC)c(NCC(=O)O)c2)c(OC)c1 [Rigosertib] + C=CC(=O)N1CCN(c2nc(=O)n(-c3c(C)ccnc3C(C)C)c3nc(-c4c(O)cccc4F)c(F)cc23)[C@@H](C)C1 [sotorasib]
combination cScore with sotorasib (NCI-H2122): 2.41
combination cScore with sotorasib (SW837): 13.3

C/C=C1\NC(=O)[C@H]2CSSCC/C=C/[C@H](CC(=O)N[C@H](C(C)C)C(=O)N2)OC(=O)[C@H](C(C)C)NC1=O [Romidepsin] + C=CC(=O)N1CCN(c2nc(=O)n(-c3c(C)ccnc3C(C)C)c3nc(-c4c(O)cccc4F)c(F)cc23)[C@@H](C)C1 [sotorasib]
combination cScore with sotorasib (NCI-H2122): 5.9
combination cScore with sotorasib (SW837): 12.7

N#CC[C@H](C1CCCC1)n1cc(-c2ncnc3[nH]ccc23)cn1 [Ruxolitinib] + C=CC(=O)N1CCN(c2nc(=O)n(-c3c(C)ccnc3C(C)C)c3nc(-c4c(O)cccc4F)c(F)cc23)[C@@H](C)C1 [sotorasib]
combination cScore with sotorasib (NCI-H2122): 4.05
combination cScore with sotorasib (SW837): 6.8
